Source: PMC9818021, “Targets, Mechanisms and Cytotoxicity of Half-Sandwich Ir(III) Complexes Are Modulated by Structural Modifications on the Benzazole Ancillary Ligand” (Cancers, 2022)

How the values were obtained:
[1] = tested on: A549 cells; experiment: Viability of A549 proliferant vs quiescent cells; type: cell-based, human; details: 24 h
Description: Cytotoxicity. MTT Assay and IC50 estimation. The cytotoxicity of 1[C,NH-Cl], 2[C,NMe-Cl], 3[N,NH-Cl]Cl, 4[N,NMe-Cl]Cl, 5[CNH2,NH-Cl]Cl, 6[CNH2,S-Cl]Cl, 7[CO,NH-Cl] and 8[CO,S-Cl] in A2780, A2780cis, SW480 and A549 carcinoma cells was evaluated by the MTT colorimetric assay. Cells were seeded in 96-well plates at 5000 cells per well and incubated at 37 °C, 5% CO2. […] Final DMSO concentration was kept below 0.7% in wells. For a negative control, one sequence of cells was left untreated and for vehicle control, cells treated with DMSO were included. For cell viability experiments preincubating with NAC (N-Acetyl-L-Cysteine), the cells were pre-treated with NAC, 10 mM for 2 h before the incubation with complex 1[C,NH-Cl] for 24 h. Then, the medium was removed from the wells, and 100 µL MTT (5 mg/mL) was added. After an incubation time of 4 h, 100 μL of solubilizing detergent solution (SDS, 10% in HCL 0.01 M) was added and kept in the incubator overnight. Cell growth inhibition was detected by measuring the absorbance of each well at 595 nm using a BioTek Cytation5 microplate reader. Each test was repeated in quadruplicate in three independent experiments for each cell line. The percentage of survival cells was calculated using absorbance measurements compared with control and the IC50 estimation using Graph Pad Prism version 6.01.

[2] = tested on: A549 cells; experiment: DNA damage by phosphorylated H2AX, flow cytometry; type: cell-based, human; details: 4 h
Description: (§1) DNA damage was measured using EpiQuik 8-OHdG DNA Damage Quantification Direct Kit (colorimetric) (Fischer, Waltham, MA, USA, P600396); The mitochondrial cytochrome C release was evaluated using the “Millipore’s FlowCellect Cytochrome C Kit (Millipore, FCCH100110)”. Lactate dehydrogenase activity release was measured in the culture medium using Cytotoxicity Detection Kit (Roche Diagnostic, Barcelona, Spain, 11 644 793 001). Protein synthesis was determined using Click-iT Plus O-propargyl-puromycin (OPP) Protein Synthesis Assay Kit (Invitrogen™, Waltham, MA, USA). Measurement of GSH/GSSG was determined with GSH/GSSG-Glo Assay (Promega, V6611). Measurements of OCR and ECAR with Seahorse XFp (Agilent Technologies) were determined using the XFp Cell Mito Stress Test Kit (103010-100) and XFp Glycolysis Stress Test Kit (103017-100). ATP measurement was determined with Cell Titer-Glo Luminescent Cell Viability Assay (Promega, Madison, WI, USA, G7570). Determination of DNA damage using phosphorylated H2AX measurement were performed as previously described. Cardiolipin oxidation using the fluorophore Nonyl Acridine Orange (NAO, Thermo Scientific, A1372) was performed as described. Cell viability was determined by Hoechst inclusion and Propidium iodide (PI) exclusion by standard protocols. TEM analysis were performed as described. Cell cycle analysis by flow cytometry and microarrays analysis were performed as described. Arrays data have been deposited in the ArrayExpress database at EMBL-EBI (www.ebi.ac.uk/arrayexpress) under accession number E-MTAB-860 (10 November 2022)

[3] = tested on: A549 cells; experiment: Lactate dehydrogenase release; type: cell-based, human; details: 16 µM, 1% FBS
Description: (§2) DNA damage was measured using EpiQuik 8-OHdG DNA Damage Quantification Direct Kit (colorimetric) (Fischer, Waltham, MA, USA, P600396); The mitochondrial cytochrome C release was evaluated using the “Millipore’s FlowCellect Cytochrome C Kit (Millipore, FCCH100110)”. Lactate dehydrogenase activity release was measured in the culture medium using Cytotoxicity Detection Kit (Roche Diagnostic, Barcelona, Spain, 11 644 793 001). Protein synthesis was determined using Click-iT Plus O-propargyl-puromycin (OPP) Protein Synthesis Assay Kit (Invitrogen™, Waltham, MA, USA). Measurement of GSH/GSSG was determined with GSH/GSSG-Glo Assay (Promega, V6611). Measurements of OCR and ECAR with Seahorse XFp (Agilent Technologies) were determined using the XFp Cell Mito Stress Test Kit (103010-100) and XFp Glycolysis Stress Test Kit (103017-100). ATP measurement was determined with Cell Titer-Glo Luminescent Cell Viability Assay (Promega, Madison, WI, USA, G7570). Determination of DNA damage using phosphorylated H2AX measurement were performed as previously described. Cardiolipin oxidation using the fluorophore Nonyl Acridine Orange (NAO, Thermo Scientific, A1372) was performed as described. Cell viability was determined by Hoechst inclusion and Propidium iodide (PI) exclusion by standard protocols. TEM analysis were performed as described. […]

[4] = tested on: A549 cells; experiment: Hoechst/propidium iodide staining; type: cell-based, human; details: 16 μM
Description: as §2

[5] = tested on: A549 cells; experiment: Seahorse XFp Cell Mito Stress Test (OCR); type: cell-based, human; details: 16 µM, A549, 1 h
Description: as §1

[6] = tested on: A549-gal cells; experiment: Seahorse XFp Glycolysis Stress Test (ECAR); type: cell-based, human; details: 16 µM
Description: Cell culture. Epithelial ovarian carcinoma cells (A2780) that acquired resistance to cisplatin epithelial ovarian carcinoma cells (A2780cis), colon adenocarcinoma cells (SW480) and epithelial lung adenocarcinoma cells (A549) were provided by Sigma Aldrich. A549 and SW480 cells were grown in Dulbecco′s Modified Eagle′s Medium (DMEM), supplemented with 10% Fetal Bovine Serum (FBS) and 1% penicillin, streptomycin and 1% glutamine for A549 and 1% amphotericin B for SW480. The A2780 and A2780cis were grown in RPMI 1640 supplemented with 10% Fetal Bovine Serum (FBS), 1% glutamine and 1% penicillin, streptomycin and amphotericin B. All cells were incubated in a humidified incubator at 37 °C under a 5% CO2 atmosphere and grown in 100 mm culture dishes to approximately 70–80% confluence. For subculturing, cells were detached with Trypsin-EDTA (Sigma). A549-gal were derived from A549 cultured in glucose-free medium supplemented with 10 mM galactose (Sigma) for at least 10 passes.
as §1

[7] = tested on: BALB/c mice; experiment: Biodistribution (ICP-MS of organs); type: in vivo, mouse; details: 4 h after i.v. injection
Description: Biodistribution studies: BALB/c mice were injected via the tail vein with 100 µL of 1[C,NH] dissolved in PBS. Then, 4 h after the injection, the animals (n = 3) were sacrificed, and the following organs were removed: kidney, spleen, liver, heart, lung, pancreas, intestine, ovary and stomach. They were kept at −80 °C until their analysis at the Cactus-Lugo Instrumental Analysis Unit. Solutions were diluted to a final volume of 10 mL MilliQ water and measured on an Agilent 7700x-ICP-MS.

Cc1c(C)c(C)[c-](C)c1C.[Cl][Ir]1[c]2ccccc2-c2[nH]c3ccccc3[n+]21 [1[C,NH], [(η^5-Cp*)IrCl(κ^2-N,C-pbim)]]
IC50 ([1]; A549 non-proliferating (quiescent) condition): 17 µM
IC50 ([1]; A549 proliferating condition): 9.5 µM
Percentage of A549 positive cells to damage on DNA ([2]; 8 μM): 2%
Percentage of A549 positive cells to damage on DNA ([2]; 16 μM): 30%
Percentage of A549 positive cells to damage on DNA ([2]; 24 μM): 87%
LDH release to the medium [3]: only began after 8 h of incubation
PI positive cells [4]: absent during the first 6 h of treatment
ATP Production, OCR, Mean [5]: 7.77 pmol/min
Basal Respiration, OCR, Mean [5]: 57.35 pmol/min
Coupling Efficiency, Mean [5]: 13.65
Maximal Respiration, OCR, Mean [5]: 47.24 pmol/min
Non-Mitochondrial Oxygen Consumption, OCR, Mean [5]: 26.35 pmol/min
Proton Leak, OCR, Mean [5]: 49.58 pmol/min
Spare Respiratory Capacity as a %, Mean [5]: 80.93%
Spare Respiratory Capacity, OCR, Mean [5]: 0.27 pmol/min
Acute Response, ECAR, Mean [6]: 4.17 mpH/min
Glycolysis, ECAR, Mean [6]: 44.81 mpH/min
Glycolytic Capacity, ECAR, Mean [6]: 43.97 mpH/min
Glycolytic Reserve %, Mean [6]: 98.26%
Glycolytic Reserve, ECAR, Mean [6]: 2.48 mpH/min
Non-Glycolytic Acidification, ECAR, Mean [6]: 9.64 mpH/min
Tissues with the highest accumulation [7]: liver, kidneys and lungs
